Assay results as given in patent US10301267B2, “Compounds” (AstraZeneca AB, priority 2006, dated 2019).

Molecular target: T1, transiently expressed FGFR1 IIIc in Cos-1 cells (Homo sapiens, UniProt P11362)
T1 construct: The clone was full-length, wild-type FGFR1 IIIc isoform; host or cells: Cos-1
Assay: Cell FGFR1 - cell based inhibition of transiently expressed FGFR1 IIIc phosphorylation
Conditions: phospho-FGFR1
Description: Cell FGFR1—Cell Based Inhibition of Transiently Expressed FGFR1 IIIc Phosphorylation (Measured Using Phospho-Specific Primary and Fluorescent Secondary Antibodies).
This assay is designed to detect inhibitors of transiently expressed FGFR1 phosphorylation by antibody staining of fixed cells detected using ArrayScan technology. (For a description of Array Scan technology see http://www.cellomics.com/content/menu/Arrayscan/)
Cos-1 cells were routinely passaged in DMEM (Gibco BRL, 41966) plus 3% foetal calf serum (FCS), 1% L-glutamine (Gibco BRL, 25030) to a confluence of 80%. To undertake the assay, Cos-1 cells were harvested at 90-95% confluence for cell transfection. […]
The harvested Cos-1 cells are counted using a coulter counter and diluted further with 1% FCS/DMEM to 2.5×10^5 cells/ml. […]
Following incubation at room temperature for 1 hour, the antibody solution was removed and the wells were washed once with 200 ul/well PBS/A. Then 40 μl 1/500 secondary antibody (A111005; goat anti-mouse 594) solution and 1/10000 Hoechst (diluted together in PBS/A with 10% FCS+0.1% Tween 20) were added and the plate incubated in the dark at room temperature for one hour. […] The plates were read on an Arrayscan (Cellomics). […]

T1 sequence (P11362 22-822): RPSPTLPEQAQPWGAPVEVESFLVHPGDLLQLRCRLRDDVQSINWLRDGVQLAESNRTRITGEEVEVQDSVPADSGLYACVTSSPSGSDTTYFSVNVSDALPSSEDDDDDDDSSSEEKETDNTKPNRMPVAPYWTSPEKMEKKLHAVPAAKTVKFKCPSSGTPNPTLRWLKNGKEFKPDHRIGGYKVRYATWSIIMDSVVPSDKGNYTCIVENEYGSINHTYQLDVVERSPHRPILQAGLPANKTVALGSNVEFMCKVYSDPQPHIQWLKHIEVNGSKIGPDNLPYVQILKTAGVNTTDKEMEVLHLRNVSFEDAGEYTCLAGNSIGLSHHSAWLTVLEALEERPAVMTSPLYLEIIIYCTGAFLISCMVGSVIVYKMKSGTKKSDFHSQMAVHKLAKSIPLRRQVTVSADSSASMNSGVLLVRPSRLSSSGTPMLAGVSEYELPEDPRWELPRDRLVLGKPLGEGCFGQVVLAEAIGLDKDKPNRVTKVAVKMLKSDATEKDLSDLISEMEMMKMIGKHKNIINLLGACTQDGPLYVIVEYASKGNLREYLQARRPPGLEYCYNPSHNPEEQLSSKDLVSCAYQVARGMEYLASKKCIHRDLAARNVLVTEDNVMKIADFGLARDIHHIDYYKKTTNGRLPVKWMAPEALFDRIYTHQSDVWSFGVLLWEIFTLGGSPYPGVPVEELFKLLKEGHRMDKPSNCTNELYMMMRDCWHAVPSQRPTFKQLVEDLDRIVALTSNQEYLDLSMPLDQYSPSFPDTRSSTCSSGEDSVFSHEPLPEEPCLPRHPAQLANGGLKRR

Structure (SMILES) | IC50
COc1cc(CCc2cc(NC(=O)c3ccc(OCCN4CCC(F)(F)CC4)cc3)n[nH]2)cc(OC)c1 [Example 55, 4-[2-(4,4-Difluoro-1-piperidyl)ethoxy]-N-[5-[2-(3,5-dimethoxyphenyl)ethyl]-1H-pyrazol-3-yl]benzamide] | 460 nM
COc1cc(CCc2cc(NC(=O)c3ccc(CC(C)N)cc3)n[nH]2)cc(OC)c1 (centres unmarked) [Example 49, 4-(2-Aminopropyl)-N-[5-[2-(3,5-dimethoxyphenyl)ethyl]-1H-pyrazol-3-yl]benzamide] | 1470 nM
